Source: patent EP0224924B1, “Non-aromatic fluorallylamine MAO inhibitors” (MERRELL DOW PHARMACEUTICALS INC., priority 1985, dated 1987)

Experiments:
[1] = target: T1, MAO-B (Rattus norvegicus, UniProt P19643); test: Inhibition of MAO in vitro, rat brain mitochondria, 14C phenethylamine (PEA) as substrate; format: biochemical; conditions: ratio of the inhibitory activity against MAO-B versus MAO-A
T1 construct: in partially purified mitochondria from rat brain; from tissue; host or cells: rat brain mitochondria (partially purified, differential centrifugation)
T1 sequence (P19643 1-520): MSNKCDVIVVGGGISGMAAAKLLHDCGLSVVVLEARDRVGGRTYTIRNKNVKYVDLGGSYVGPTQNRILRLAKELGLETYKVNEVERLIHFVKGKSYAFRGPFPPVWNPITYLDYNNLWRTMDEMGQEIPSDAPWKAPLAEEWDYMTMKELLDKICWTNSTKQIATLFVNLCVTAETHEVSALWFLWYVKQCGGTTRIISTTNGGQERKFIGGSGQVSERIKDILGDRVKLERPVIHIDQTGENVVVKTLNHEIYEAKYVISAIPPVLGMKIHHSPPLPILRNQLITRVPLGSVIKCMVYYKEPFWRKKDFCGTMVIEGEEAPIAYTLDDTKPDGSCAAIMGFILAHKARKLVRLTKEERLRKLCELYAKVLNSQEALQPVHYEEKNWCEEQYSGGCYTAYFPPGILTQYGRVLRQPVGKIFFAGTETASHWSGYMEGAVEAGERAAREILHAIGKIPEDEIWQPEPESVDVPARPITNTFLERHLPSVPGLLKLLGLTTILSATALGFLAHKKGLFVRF
Source text: The ability of a compound of structure 1 to inhibit MAO can be determined in vitro by the method of A. Christmas et al., Br. J. Pharmacol. 45, 490 (1972) in partially purified mitochondria from rat brain using ¹⁴C o-tyramine or ¹⁴C phenethylamine and ¹⁴C 5-HT as the substrate. The MAO inhibitory activity of a compound is expressed as the "IC₅₀" value, which is the molar concentration required to produce 50% inhibition of the enzyme. The IC₅₀ values for certain compounds of structure 1 were determined using the above-described method, and the results are set forth in Table I.
The selectivity of a compound of structure 1 with respect to inhibition of MAO-A and MAO-B can be determined by preparing mitochondria from rat brain by homogenation in phosphate buffer (0.1 M, pH 7.2) followed by differential centrifugation. The mitochondria are suspended in the same buffer, the test compound is added at the desired concentration, and the system is incubated. At different time intervals, aliquots are taken and MAO activity is measured using ¹⁴C 5-hydroxytryptamine (5HT; a preferred substrate for MAO-A) or 14C-phenethylamine (PEA; a preferred substrate for MAO-B) as the substrates. The selectivity is expressed as the ratio of the inhibitory activity against MAO-B versus the inhibitory activity against MAO-A. (Zreika, McDonald, Bey, Palfreyman, J. Neurochem., 43, 448-454 (1984)).

[2] = test system: MAO-B; test: Inhibition of MAO ex vivo, brain mitochondrial fraction after oral dosing, 14C phenethylamine as substrate; format: in vivo; conditions: rats, orally (po)
Description: (§1) The ability of a compound of formula 1 to inhibit MAO can be determined ex vivo by the following procedure:
(§2) The test compound is administered orally (po) to rats and the animals are killed at various times after treatment. The brain is removed and a mitochondrial fraction, described in Example 12 is prepared. MAO activity is determined using ¹⁴C p-tyramine, as the substrate. Selectivity can be determined by repeating the above-described test using either ¹⁴C 5-hydroxytryptamine (for MAO-A) or ¹⁴C phenethylamine (for MAO-B) as the substrate for determining the % inhibition.

[3] = test system: MAO-A; test: Inhibition of MAO ex vivo, brain mitochondrial fraction after oral dosing, 14C 5-hydroxytryptamine as substrate; format: in vivo; conditions: rats, orally (po)
Description: as §1, §2

Structure (SMILES) | MAO B SELECTIVITY [1] | ED50 for MAO-B inhibition [2] [mg/kg] | ED50 for MAO-A inhibition [3] [mg/kg]
CCCCCC/C(=C\F)CN [(E)-2-Hexyl-3-fluoroallylamine] | 24 |  | 
CC(C)C/C(=C\F)CN [(E)-2-Isobutyl-3-fluoroallylamine] | 77 | 0.05 | 0.8
CC(C)/C(=C\F)CN [(E)-2-Isopropyl-3-fluoroallylamine] | 68 |  | 
CCCC/C(=C\F)CN [(E)-2-Butyl-3-fluoroallylamine] | 55 |  | 
CCCCCCC/C(=C\F)CN [(E)-2-Heptyl-3-fluoroallylamine] | 13 |  | 
CCCCCCCCCCC/C(=C\F)CN [(E)-2-Undecyl-3-fluoroallylamine] | 1.5 |  | 
CCC(C)/C(=C\F)CN (stereo not drawn) [(E)-2-sec-Butyl-3-fluoroallylamine] | 24 |  | 
